Drawing on US9650379B2 (CHONG KUN DANG PHARMACEUTICAL CORP., priority 2013, dated 2017), this text covers IC50 for 22 molecules.

One assay has as its target T1, HDAC6 human recombinant (Homo sapiens, UniProt Q9UBN7).
T1 construct: purchased Calbiochem 382180
T1 sequence (Q9UBN7 1-1215): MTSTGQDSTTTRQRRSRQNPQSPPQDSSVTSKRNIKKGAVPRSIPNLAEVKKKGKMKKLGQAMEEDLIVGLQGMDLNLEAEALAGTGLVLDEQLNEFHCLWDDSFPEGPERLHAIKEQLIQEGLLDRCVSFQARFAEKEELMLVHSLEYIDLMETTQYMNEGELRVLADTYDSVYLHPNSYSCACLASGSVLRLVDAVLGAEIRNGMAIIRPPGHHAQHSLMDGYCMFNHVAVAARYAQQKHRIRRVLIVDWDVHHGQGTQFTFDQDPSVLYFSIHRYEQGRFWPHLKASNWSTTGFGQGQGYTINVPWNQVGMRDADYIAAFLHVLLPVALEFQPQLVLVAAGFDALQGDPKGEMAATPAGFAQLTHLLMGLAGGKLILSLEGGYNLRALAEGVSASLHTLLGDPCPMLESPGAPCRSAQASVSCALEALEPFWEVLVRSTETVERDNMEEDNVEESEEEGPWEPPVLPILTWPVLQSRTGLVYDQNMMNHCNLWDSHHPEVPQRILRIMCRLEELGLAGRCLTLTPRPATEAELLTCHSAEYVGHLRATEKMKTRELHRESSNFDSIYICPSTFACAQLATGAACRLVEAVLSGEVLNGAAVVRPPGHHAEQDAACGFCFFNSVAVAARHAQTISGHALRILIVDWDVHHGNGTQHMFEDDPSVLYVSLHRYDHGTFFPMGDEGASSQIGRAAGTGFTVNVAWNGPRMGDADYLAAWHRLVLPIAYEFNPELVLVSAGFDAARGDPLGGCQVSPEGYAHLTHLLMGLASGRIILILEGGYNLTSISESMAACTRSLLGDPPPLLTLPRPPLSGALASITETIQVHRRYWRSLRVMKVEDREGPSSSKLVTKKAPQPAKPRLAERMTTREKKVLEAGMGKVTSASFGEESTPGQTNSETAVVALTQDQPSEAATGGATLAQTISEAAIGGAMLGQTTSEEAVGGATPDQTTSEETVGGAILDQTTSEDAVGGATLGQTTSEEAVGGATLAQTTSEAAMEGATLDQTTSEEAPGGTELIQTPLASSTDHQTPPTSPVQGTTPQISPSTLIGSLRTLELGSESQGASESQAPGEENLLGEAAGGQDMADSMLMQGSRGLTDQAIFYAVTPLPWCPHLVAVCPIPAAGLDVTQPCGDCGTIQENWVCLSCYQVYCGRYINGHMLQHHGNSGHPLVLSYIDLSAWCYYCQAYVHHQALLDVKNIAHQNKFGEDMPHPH
The experiment in a line: Inhibition of HDAC6 activity (fluorimetric assay). The class given is biochemical. To be noted: test concentrations 0.1, 1, 10, 100 and 1000 nM; 37° C., 60 minutes. As for the experimental part: (§1) Assays were performed using a HDAC1 fluorimetric drug discovery assay kit (Enzolifesciences: BML-AK511) and a HDAC6 human recombinant (Calbiochem: 382180). The assay mixture of the kit was treated with a test compound at concentrations of 100, 1000 and 10000 nM for HDAC1 assay and concentrations of 0.1, 1, 10, 100 and 1000 nM for HDAC6 assay. The treated assay mixture was allowed to react at 37° C. for 60 minutes, and then was treated with a developer and allowed to stand at 37° C. for 30 minutes, followed by quantification of the fluorescence.

The next assay addresses T2, HDAC1 (Homo sapiens, UniProt Q13547).
T2 construct: purchased Enzolifesciences BML-AK511
Kind of assay: Inhibition of HDAC1 activity (HDAC1 fluorimetric drug discovery assay kit). The class given is biochemical. To be noted: test concentrations 100, 1000 and 10000 nM; 37° C., 60 minutes. As for the experimental part: as §1

T2 sequence (Q13547 whole entry): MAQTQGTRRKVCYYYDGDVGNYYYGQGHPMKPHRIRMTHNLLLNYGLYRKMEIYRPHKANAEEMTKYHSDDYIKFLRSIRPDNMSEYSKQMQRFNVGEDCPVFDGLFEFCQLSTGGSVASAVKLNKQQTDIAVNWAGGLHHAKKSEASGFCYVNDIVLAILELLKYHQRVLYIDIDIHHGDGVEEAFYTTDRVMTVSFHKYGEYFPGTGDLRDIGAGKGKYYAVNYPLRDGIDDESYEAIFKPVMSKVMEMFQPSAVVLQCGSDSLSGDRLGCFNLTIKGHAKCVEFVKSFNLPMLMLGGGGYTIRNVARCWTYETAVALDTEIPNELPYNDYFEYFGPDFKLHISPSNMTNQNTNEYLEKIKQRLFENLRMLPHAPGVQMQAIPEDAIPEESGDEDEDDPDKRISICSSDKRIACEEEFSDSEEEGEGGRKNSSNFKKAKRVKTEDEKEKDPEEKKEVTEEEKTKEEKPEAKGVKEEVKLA

Take `CC(C)(F)CN1CCN(Cc2ccc(-c3ccnc4c3ccn4Cc3ccc(C(=O)NO)cc3)cc2)CC1` [Compound 763, 4-((4-(4-((4-(2-fluoro-2-methylpropyl)piperazin-1-yl)methyl)phenyl)-1H-pyrrolo[2,3-b]pyridin-1-yl)methyl)-N-hydroxybenzamide]: the IC50 was found to be 300 nM on HDAC6 human recombinant and 4200 nM at HDAC1.

Regarding `CC(C)(C)OC(=O)N1CC=C(c2ccc3ccn(Cc4ccc(C(=O)NO)cc4)c3n2)CC1` [Compound 744, tert-butyl 4-(1-(4-(hydroxycarbamoyl)benzyl)-1H-pyrrolo[2,3-b]pyridin-6-yl)-5,6-dihydropyridine-1(2H)-carboxylate], the IC50 on HDAC6 human recombinant turned out to be 62 nM; on HDAC1 it was 1890 nM.

As for `Nc1cccc(-c2cnc3c(ccn3Cc3ccc(C(=O)NO)cc3)c2)c1` [Compound 690, 4-((5-(3-aminophenyl)-1H-pyrrolo[2,3-b]pyridin-1-yl)methyl)-N-hydroxybenzamide], the IC50 at HDAC6 human recombinant came to 12 nM; on HDAC1 it was 2310 nM.

For the molecule `O=C(NO)c1ccc(Cn2ccc3c(-c4ccncc4)ccnc32)cc1` [Compound 657, N-hydroxy-4-((4-(pyridin-4-yl)-1H-pyrrolo[2,3-b]pyridin-1-yl)methyl)benzamide], the IC50 is 9 nM at HDAC6 human recombinant and 470 nM at HDAC1.

Turning to `CN1CCN(Cc2ccc(CN3CCC(c4ccnc5c4ccn5Cc4ccc(C(=O)NO)cc4)CC3)cc2)CC1` [Compound 988, N-hydroxy-4-((4-(1-(4-((4-methylpiperazin-1-yl)methyl)benzyl)piperidin-4-yl)-1H-pyrrolo[2,3-b]pyridin-1-yl)methyl)benzamide], the IC50 amounted to 5.9 nM at HDAC6 human recombinant and 290 nM on HDAC1.

Regarding `COc1cccc(CN2[C@H](C)CN(c3cnc4c(ccn4Cc4ccc(C(=O)NO)cc4)c3)C[C@@H]2C)c1` [Compound 1003], the IC50 on HDAC6 human recombinant worked out at 7.7 nM; against HDAC1, 2680 nM.

For `CC(C)(O)CN1CC2(CCN(c3cnc4c(ccn4Cc4ccc(C(=O)NO)cc4)c3)CC2)C1` [Compound 956, N-hydroxy-4-((5-(2-(2-hydroxy-2-methylpropyl)-2,7-diazaspiro[3.5]nanan-7-yl)-1H-pyrrolo[2,3-b]pyridin-1-yl)methyl)benzamide], the IC50 at HDAC6 human recombinant was 3.7 nM; against HDAC1, 830 nM.

Consider `O=C(NO)c1ccc(Cn2ccc3cc(C4CCN(Cc5ccc(CN6CCOCC6)cc5)CC4)cnc32)cc1` [Compound 882, N-hydroxy-4-((5-(1-(4-(morpholinomethyl)benzyl)piperidin-4-yl)-1H-pyrrolo[2,3-b]pyridin-1-yl)methyl)benzamide], for which the IC50 was found to be 7.5 nM at HDAC6 human recombinant and 1140 nM against HDAC1.

Take `COc1cccc(CN2CCN(c3ccnc4c3ccn4Cc3ccc(C(=O)NO)cc3)CC2)c1` [Compound 846, N-hydroxy-4-((4-(4-(3-methoxybenzyl)piperazin-1-yl)-1H-pyrrolo[2,3-b]pyridin-1-yl)methyl)benzamide]: the IC50 stood at 5.7 nM on HDAC6 human recombinant and 1410 nM against HDAC1.

For `CC(C)(F)C(=O)N1CCC(c2cnc3c(ccn3Cc3ccc(C(=O)NO)cc3)c2)CC1` [Compound 854, 4-((5-(1-(2-fluoro-2-methylpropanoyl)piperidin-4-yl)-1H-pyrrolo[2,3-b]pyridin-1-yl)methyl)-N-hydroxybenzamide], the IC50 was found to be 5 nM at HDAC6 human recombinant and 350 nM against HDAC1.

Consider `O=C(NO)c1ccc(Cn2ccc3cc(C4CCN(Cc5ccc(F)cc5)CC4)cnc32)cc1` [Compound 843, 4-((5-(1-(4-fluorobenzyl)piperidin-4-yl)-1H-pyrrolo[2,3-b]pyridin-1-yl)methyl)-N-hydroxybenzamide], for which the IC50 was 14 nM on HDAC6 human recombinant and 770 nM on HDAC1.

On to `CC(C)(C)OC(=O)N1CC=C(c2ccnc3c2ccn3Cc2ccc(C(=O)NO)cc2)CC1` [Compound 784], for which the IC50 at HDAC6 human recombinant was 16 nM; at HDAC1 it was 930 nM.

Consider `Nc1cccc(-c2ccnc3c2ccn3Cc2ccc(C(=O)NO)cc2)c1` [Compound 722, 4-((4-(3-aminophenyl)-1H-pyrrolo[2,3-b]pyridin-1-yl)methyl)-N-hydroxybenzamide], for which the 50% inhibitory concentration (IC50) at HDAC6 human recombinant worked out at 3 nM; against HDAC1, 270 nM.

For the molecule `CN1CCN(Cc2cccc(C(=O)N3CCC(c4cnc5c(ccn5Cc5ccc(C(=O)NO)cc5)c4)CC3)c2)CC1` [Compound 896, N-hydroxy-4-((5-(1-(3-((4-methylpiperazin-1-yl)methyl)benzoyl)piperidin-4-yl)-1H-pyrrolo[2,3-b]pyridin-1-yl)methyl)benzamide], the IC50 on HDAC6 human recombinant was found to be 8.6 nM; at HDAC1 it was 800 nM.

For `O=C(NO)c1ccc(Cn2ccc3cc(C4=CCN(CC5CCCCC5)CC4)cnc32)cc1` [Compound 721, 4-((5-(1-(cyclohexylmethyl)-1,2,3,6-tetrahydropyridin-4-yl)-1H-pyrrolo[2,3-b]pyridin-1-yl)methyl)-N-hydroxybenzamide], the IC50 at HDAC6 human recombinant is 19 nM; against HDAC1, 1320 nM.

`O=C(NO)c1ccc(Cn2ccc3cc(-c4cncnc4)cnc32)cc1` [Compound 124, N-hydroxy-4-((5-(pyrimidin-5-yl)-1H-pyrrolo[2,3-b]pyridin-1-yl)methyl)benzamide]: the values for the IC50 on HDAC6 human recombinant and on HDAC1 were 120 nM and 540 nM, respectively.

As to `CC(C)(F)C(=O)N1CCN(c2cnc3c(ccn3Cc3ccc(C(=O)NO)cc3)c2)CC1` [Compound 855, 4-((5-(4-(2-fluoro-2-methylpropanoyl)piperazin-1-yl)-1H-pyrrolo[2,3-b]pyridin-1-yl)methyl)-N-hydroxybenzamide], the IC50 was determined as 3.5 nM at HDAC6 human recombinant and 250 nM at HDAC1.

For `CC(C)(C)OC(=O)N1CCN(c2cnc3c(ccn3Cc3ccc(C(=O)NO)cc3)c2)CC1` [Compound 746, tert-butyl 4-(1-(4-(hydroxycarbamoyl)benzyl)-1H-pyrrolo[2,3-b]pyridine-5-yl)piperazine-1-carboxylate], the IC50 came to 22 nM on HDAC6 human recombinant and 1960 nM against HDAC1.

Take `O=C(NO)c1ccc(Cn2ccc3c(N4CCN(Cc5ccc(C(F)(F)F)cc5)CC4)ccnc32)cc1` [Compound 706, N-hydroxy-4-((4-(4-(4-(trifluoromethyl)benzyl)piperazin-1-yl)-1H-pyrrolo[2,3-b]pyridin-1-yl)methyl)benzamide]: the values for the IC50 on HDAC6 human recombinant and on HDAC1 were 30 nM and 2330 nM, respectively.

As to `O=C(O)CN1CCC(c2ccnc3c2ccn3Cc2ccc(C(=O)NO)cc2)CC1` [Compound 917, 2-(4-(1-(4-(hydroxycarbamoyl)benzyl)-1H-pyrrolo[2,3-b]pyridin-4-yl)piperidin-1-yl)acetic acid], the IC50 on HDAC6 human recombinant stood at 5.8 nM; against HDAC1 it was 780 nM.

Turning to `O=C(NO)c1ccc(Cn2ccc3cc(N4CCN(Cc5ccccc5)CC4)cnc32)cc1` [Compound 806, 4-((5-(4-benzylpiperazin-1-yl)-1H-pyrrolo[2,3-b]pyridin-1-yl)methyl)-N-hydroxybenzamide], the values for the IC50 at HDAC6 human recombinant and on HDAC1 were 6.7 nM and 680 nM, respectively.

As for `CN1CCN(Cc2ccc(C(=O)N3CCC(c4cnc5c(ccn5Cc5ccc(C(=O)NO)cc5)c4)CC3)cc2)CC1` [Compound 898, N-hydroxy-4-((5-(1-(4-((4-methylpiperazin-1-yl)methyl)benzoyl)piperidin-4-yl)-1H-pyrrolo[2,3-b]pyridin-1-yl)methyl)benzamide], the IC50 at HDAC6 human recombinant came to 6.2 nM; on HDAC1 it was 780 nM.

A word on the IC50: it is the midpoint of a concentration-inhibition curve.
